# Source: US6433012B1, “Method for inhibiting inflammatory disease” (Large Scale Biology Corp., priority 1998, dated 2002)
# Marks after values point to notes of the source that are not given here.
# How the values were obtained:
# [1] = system: angiogenesis induced by hFGF-B in the chick chorioallantoic membrane (CAM); test: Chick chorioallantoic membrane (CAM) assay, 14C-proline incorporation into collagenous protein; assay type: in vivo; design: inhibition of hFGF-B-induced angiogenesis: dose or concentration left out as unconfirmed
# Excerpt: This example illustrates the anti-angiogenic properties of methyl-3,5-diiodo-4-(4′-methoxyphenoxy)benzoate in the chick chorioallantoic membrane assay (CAM). The endpoint of the CAM assay was a quantitative determination of basement membrane biosynthesis by measuring the incorporation of ^14C-proline into Type IV collagenous protein.
# The CAM assay involves the development of live chick embryos in Petri dishes under special sterile conditions. Therefore, only limited numbers of embryos can be used for evaluation of compounds in a single experiment. For this reason, two separate assays were conducted to test the three Biosource compounds at three concentrations per compound. In this assay, a known angiogenesis inhibitor, 2-methoxyestradiol (2-ME), was used as the positive control, and human fibroblast growth factor (hFGF) was used to induce angiogenesis in the CAM.
# For testing, a minimum amount of acetone-methanol (1:1) was added to the test compounds for sterilization. The acetone-methanol mixture was then evaporated to dryness in a sterile hood. The compounds were dissolved dimethyl sulfoxide (DMSO) first and then diluted with saline containing methylcellulose. The final concentrations were 2% DMSO and 0.5% methylcellulose. All test solutions were added to each CAM in […].
# Fresh fertile eggs were incubated for three days in a standard egg incubator. On Day 3, eggs were cracked under sterile conditions and embryos were placed in 20×100 mm plastic Petri dishes and cultivated at 37° C. in an embryo incubator with a water reservoir on the bottom shelf. Air was continuously bubbled into the water reservoir by using a small pump so that the humidity in the incubator was kept constant. Observations were made daily to ensure that all embryos were healthy. Dead or unhealthy embryos were removed from the incubator immediately to avoid contamination. On Day 9, a sterile silicone ring cup was placed on each CAM and […] of ^14C-proline with or without the test compound plus 2.5 ng of hFGF dissolved in saline containing 0.5% methylcellulose was delivered into each ring cup in a sterile hood. 2-ME was tested in parallel to serve as a reference compound. After addition of test materials, the embryos were returned to the incubator and cultivation continued. On Day 12, all embryos were transferred to a cold room at 4-10° C. The antiangiogenic effect of each test compound was determined by using the collagenase assay (Maragoudakis, et al., J. Pharm. Exp. Ther. 251:679-682 (1989)) to measure ^14C-proline incorporation into collagenous protein.
# With the embryos placed on ice, a piece of CAM 10 mm in diameter was cut off under each ring cup and placed in a separate tube. To each tube was added 1.0 mL of phosphate-buffered saline (PBS, pH 7.3) containing 0.11 mg cycloheximide and 0.17 mg dipyridyl. The tubes were placed in a boiling water bath for 10 min and then cooled to room temperature. The PBS in each tube was discarded after centrifugation at 3000× g for 10 min. The CAM residue was washed once with 3 mL of 15% TCA and then three times with 3 mL of 5% TCA. Centrifugation was carried out as described above between each washing. At this point all non-protein bound radioactivity was removed, and the CAM containing the newly synthesized ^14C-collagenous protein was suspended in 0.9 mL of 0.1 N NaOH and 1.1 mL of HEPES buffer at pH 7.4. The pH of the sample was neutralized with 0.8 N HCl, using phenol red as indicator.
# To digest the ^14C-collagenous protein, 7.5 units of collagenase and 500 nmol of calcium chloride in […] of HEPES buffer was added to the above samples, and mixtures were incubated at 37° C. for 4 h. The reaction was stopped by adding 1.0 mL of 20% TCA containing 5 mg of tannic acid into each tube. After vortex mixing, the samples were centrifuged at 3000× g for 10 min. […]
# [2] = Oral (gavage) toxicity in nude mice; assay type: in vivo; conditions: doses as high as 1,000 mg/kg-day for 60 to 180 days
# [3] = Bone marrow toxicity, histological examination; assay type: in vivo; conditions: 500 mg/kg-day by gavage for 4 weeks
# Method: Swiss Webster mice were exposed to the drug at 500 mg/kg-day by gavage for a period of 4 weeks, and bone marrow was examined histologically.
# [4] = system: MDA MB-231 human breast carcinoma xenografts; test: Tumor growth delay, MDA MB-231 xenografts; assay type: in vivo, Swiss NCr nude (nu/nu) female mice; conditions: oral treatment, 6 weeks of therapy
# Method: (§1) Intraperitoneally administered cyclophosphamide (CTX; Cytoxan; 150 mg/kg), which is used in some regimens for adjuvant breast cancer therapy was used as a positive control.
# [5] = system: OVCAR-3 human ovarian carcinoma xenografts; test: Tumor growth delay, OVCAR-3 xenografts; assay type: in vivo, nude mice; conditions: oral treatment, at 5 weeks
# Method: as §1
# MDA MB-231 cell cultures = test: Cytotoxicity in vitro (reduction of cell number); assay type: cell-based; conditions: Homo sapiens, treated for 48 h, read-out: IC50 (50% reduction of cell number relative to vehicle-treated control)
# MCF-7 cell cultures = test: Cytotoxicity in vitro (reduction of cell number); assay type: cell-based; conditions: Homo sapiens, MCF7; treated for 48 h; read-out: IC50 (50% reduction of cell number relative to vehicle-treated control)
# [6] = system: MDA MB-231 and MCF-7 cells; test: Nuclear morphology of breast carcinoma cells; assay type: cell-based, human; conditions: 1 μ for 48 h
# MCF-7 cells [7] = test: Trypan blue exclusion assay (loss of membrane integrity); assay type: cell-based; conditions: 1 μM, 48 h of exposure
# MCF-7 cells [8] = test: Flow cytometry, cell-cycle progression; assay type: cell-based, human; conditions: 1 μM, within 24 h
# Excerpt: Such arrested cells eventually undergo cell death which can occur by an apoptotic mechanism.
# [9] = system: rhodamine-labeled tubulin; test: Cell-free fluorescence assay of microtubule assembly; assay type: biochemical; conditions: 15 μM tubulin, GTP
# Excerpt: Microtubules are major cytoskeletal components composed of α- and β-tubulin heterodimers bound with GTP. […] The effect of the drug on microtubule assembly was investigated directly by using a cell-free fluorescence assay involving the visualization of microtubule formation from rhodamine-labeled tubulin and microtubule seeds in the presence of GTP.
# HeLa cells = test: Cellular microtubule networks; assay type: cell-based, human; conditions: 10 μM for 1 h
# [10] = Table 1 experiment, dose 8.3 μg/CAM
# [11] = Table 1 experiment, dose 25 μg/CAM
# [12] = Table 1 experiment, dose 75 μg/CAM
# [13] = Table 2 experiment, dose 8.3 μg/CAM
# [14] = Table 2 experiment, dose 25 μg/CAM
# [15] = Table 2 experiment, dose 75 μg/CAM
compound,measurement,setting,value
"COC(=O)c1cc(I)c(Oc2ccc(OC)cc2)c(I)c1 [BTO-956, methyl-3,5-diiodo-4-(4′-methoxyphenoxy)benzoate]",inhibition of hFGF-B-induced angiogenesis,[1],30%
same,% Inhibition,[1]; [10],0%
same,^14C-Proline Incorporated into Collagenous Protein (mean ± S.E.),[1]; [10],6884 ± 1395 cpm/mg-protien
same,% Inhibition,[1]; [11],19%
same,^14C-Proline Incorporated into Collagenous Protein (mean ± S.E.),[1]; [11],5098 ± 785 cpm/mg-protien
same,% Inhibition,[1]; [12],31%
same,^14C-Proline Incorporated into Collagenous Protein (mean ± S.E.),[1]; [12],4374 ± 651 cpm/mg-protien
same,% Inhibition,[1]; [13],10%
same,^14C-Proline Incorporated into Collagenous Protein (mean ± S.E.),[1]; [13],10138 ± 1625 cpm/mg-protien
same,% Inhibition,[1]; [14],18%
same,^14C-Proline Incorporated into Collagenous Protein (mean ± S.E.),[1]; [14],9100 ± 1664 cpm/mg-protien
same,% Inhibition,[1]; [15],32%
same,^14C-Proline Incorporated into Collagenous Protein (mean ± S.E.),[1]; [15],7534 ± 1099^a cpm/mg-protien
same,gross pathology,[2],No other gross pathology
same,liver and kidney weights,[2],only slight and transient increases
same,bone marrow profiles,[3],did not differ from those of control animals
same,hematopoietic abnormalities,[3],no hematopoietic abnormalities
same,growth of tumors (relative mean tumor volume),[4],suppressed
same,"relative mean tumor volume, fold less than vehicle-treated controls",[5],approximately 5 fold
same,IC50,MDA MB-231 cell cultures,300 nM
same,IC50,MCF-7 cell cultures,600 nM
same,nuclear morphology,[6],a significant number had condensed or fragmented nuclei
same,cytotoxicity by loss of membrane integrity (trypan blue exclusion),MCF-7 cells [7],substantial cytotoxicity
same,cells arrested at G2/M,MCF-7 cells [8],at least 60%
same,microtubule formation,[9]; compound 1 μM,much shorter structures
same,microtubule formation,[9]; compound 10 μM,The same effect was observed
same,cellular microtubule networks,HeLa cells,aberrant microtubule networks
